Measurements taken from PubChem BioAssay AID540260 (Sanford-Burnham Center for Chemical Genomics, 2011).
Calls of active or inactive are those of the source. The rule behind the calls is not given here.

Each compound was assayed against Alkaline phosphatase, placental type (Homo sapiens) (UniProt P05187) (assay: PLAP enzyme inhibition by analogs, SAR follow-up, selectivity assay for human IAP inhibitor project, biochemical, human PLAP isozyme, set 2 (AID 540260)). Conditions: purified placental alkaline phosphatase enzyme activity.

IC50, inactive:
N#Cc1ccc(CNC(=O)CCNS(=O)(=O)c2ccc3[nH]c(=O)oc3c2)cc1 > 100 µM
Cc1ccc(C)c(NC(=O)CCNS(=O)(=O)c2ccc3[nH]c(=O)oc3c2)c1 > 100 µM
COc1ccc(NC(=O)CNS(=O)(=O)c2ccc3[nH]c(=O)oc3c2)cc1OC > 100 µM
O=C(CNS(=O)(=O)c1ccc2[nH]c(=O)oc2c1)NCc1ccc2c(c1)OCO2 > 100 µM
O=C(CNS(=O)(=O)c1ccc2[nH]c(=O)oc2c1)Nc1ccc2c(c1)OCO2 > 100 µM
